Data set [1] relates to S. Typhimurium. In words: Bacterial load in caecum of mice infected with S. Typhimurium. Conditions: PBD-2 expressed in TG mice; oral 2.5 × 10^8 CFU; 24 h post-infection; n = 6; vs WT.
Method: (§1) Four infection experiments were conducted to determine the resistance to S. Typhimurium of the TG mice. For body weight measurements, 7 WT and 7 TG mice were orally administered with 2.5 × 10^8 CFU of S. Typhimurium, and the body weight of each mouse was measured on days 1, 2, 3, 4, and 5 after infection. For the detection of the tissue weight ratios, bacterial loads in tissues and tissue lesions after S. Typhimurium infection, 9 WT and 8 TG mice were orally administered with 2.5 × 10^8 CFU of S. Typhimurium. The spleen, caecum and body weights of the mice were weighed at 24 h post-infection. The bacterial loads in the tissues were also measured ([26]). The spleen and caecum were weighed and homogenized in cold PBS at a ratio of 4 ml per gram of tissue and coated plates. The bacterial numbers in the homogenates were counted by serially diluting the homogenates and spreading on plates. Caeca were harvested for histopathological analysis by using the methods described above. The intestinal damage, including epithelial damage, submucosal oedema, and neutrophil aggregation, was observed.
For data set [2], the system named is ERK. In words: Western blot of ERK and p-ERK in RAW 264.7 cells. The class given is cell-based, mouse. The note with it: LPS 30 min with various concentrations of PBD-2 (Figure S4). The method, then:
[…] […] Proteins were firstly analyzed with SDS-PAGE and then electro-transferred onto a PVDF (#ISEQ00010, Biosharp®, Beijing, China) membrane. The PVDF membrane was blocked with 1/100 bovine serum albumin (BSA, #V900933-100G, VETEC, Sigma-Aldrich®, St. Louis, MO, USA) at 10 μg/ml at 37°C for 2 h, washed with PBST five times, incubated with the antisera against p-p65 (# 3033), p65 (# 4764), p-ERK (# 4370), ERK (# 4695), p-p38 (# 4511), p38 (# 8690), p-JNK (# 4668), JNK (# 9258) (Cell Signaling Technology®, Danvers, MA, USA), and β-actin (# AA128, Beyotime®, Shanghai, China) at 2 μg/ml at 37°C for 2 h and washed five times again. The PVDF membrane was subsequently incubated with 1 μg/ml secondary antibody, namely, goat anti-rabbit IgG (# 7074S, Cell Signaling Technology®, Danvers, MA, USA), at 37°C for 2 h and washed five times. Lastly, immune-reactive bands were detected using an ECF Western blot system (Tanon 5200 Multi, Shanghai, China) and quantified using AlphaImager 2200 analysis software.
Supplementary file Image_4.TIF: Figure S4 Effects of PBD-2 on ERK, p38, and JNK signaling pathways. Cells were treated with LPS for 30 min with or without various concentrations of PBD-2. The expression levels of ERK, p-ERK, p38, p-p38, JNK, p-JNK, and β-actin were examined by Western blot (A). The signal intensity of each band was quantified (B–D). Click here for additional data file.
On the technique in general: In western blotting, separated proteins are transferred to a membrane and probed.

The subject of data set [3] is S. Typhimurium. Nature of the data set: Serum cytokine levels of mice infected with S. Typhimurium (ELISA). It is filed as in vivo, Salmonella Typhimurium 14028 (in mice). The note with it: 24 h, n = 6. The method, then: At 24 h post-infection, blood samples of the mice were collected to detect cytokines IL-6 (# EMC004.96), tumor necrosis factor-α (TNF-α, # EMC102a.96), IL-1β (# EMC001b.96), and IL-12 (# EMC006.96) using ELISA kits (Neo-bioscience Technology Company, Shenzhen China). For cytokine detections in the WT mice with or without treatment of PBD-2, the blood samples were collected from the WT mice orally administered with solely 2.5 × 10^8 CFU of S. Typhimurium (n = 6) or together with PBD-2 at 5 mg/kg body weight (n = 6).
In general terms: ELISA stands for enzyme-linked immunosorbent assay.

The conditions of data set [4]: PBD-2 expressed in TG mice, uninfected, n ≥ 6, vs WT.
Method: After the mice were euthanized, blood samples of TG and WT mice were collected. Alanine aminotransferase, aspartate aminotransferase, albumin, globin, albumin/globin, total bilirubin, direct bilirubin, urea, creatinine, urea/creatinine, glucose, potassium, and sodium were analyzed using a blood routine analyser (Mindray, Shenzhen China). Their heart, liver, spleen, lung, kidney, brain and intestinal segments were harvested. The histological morphologies of the mice organs and the body and organ weights of male and female mice were characterized.
(B) Comparison of body weights between TG and WT mice. (C) Comparison of weight ratios of organs, including heart, liver, spleen, lung, kidney, and brain (organ weight/body weight) between TG and WT mice. Data are represented as means ± SD (WT, n ≥ 6; TG, n ≥ 6).
For data set [5], the system named is S. Typhimurium. In words: Spleen and caecum weight ratios of mice infected with S. Typhimurium. Conditions: PBD-2 expressed in TG mice; oral 2.5 × 10^8 CFU; legend: 24 h post-infection; WT n = 9, TG n = 8.
Method: as §1
Details of data set [6]: method as in 2 sources, one per row (each row's own in cited_ref): ref [13] = [13]; PMID 27383796; doi:10.5713/ajas.16.0207; 13. Xu J Zhong F Zhang Y Zhang J Huo S Lin H . Construction of Bacillus subtilis strain engineered for expression of porcine beta-defensin-2/cecropin P1 fusion antimicrobial peptides and its growth-pr ||| ref [15] = [15]; PMID 26707031; doi:10.1111/asj.12540; 15. Tang Z Xu L Shi B Deng H Lai X Liu J . Oral administration of synthetic porcine beta-defensin-2 improves growth performance and cecal microbial flora and down-regulates the expression of intestina. The note with it: cited from earlier work.

The test system of data set [7] is NF-κB p65. In words: Western blot of p65 and p-p65 in RAW 264.7 cells. It is filed as cell-based, mouse. The method, then:
RAW 264.7 cells were treated with LPS (1 μg/ml) alone or together with PBD-2 (10 μg/mL). After 6 h, the cells were lysed, and inflammatory proteins were detected through Western blot. Proteins were firstly analyzed with SDS-PAGE and then electro-transferred onto a PVDF (#ISEQ00010, Biosharp®, Beijing, China) membrane. The PVDF membrane was blocked with 1/100 bovine serum albumin (BSA, #V900933-100G, VETEC, Sigma-Aldrich®, St. Louis, MO, USA) at 10 μg/ml at 37°C for 2 h, washed with PBST five times, incubated with the antisera against p-p65 (# 3033), p65 (# 4764), p-ERK (# 4370), ERK (# 4695), p-p38 (# 4511), p38 (# 8690), p-JNK (# 4668), JNK (# 9258) (Cell Signaling Technology®, Danvers, MA, USA), and β-actin (# AA128, Beyotime®, Shanghai, China) at 2 μg/ml at 37°C for 2 h and washed five times again. The PVDF membrane was subsequently incubated with 1 μg/ml secondary antibody, namely, goat anti-rabbit IgG (# 7074S, Cell Signaling Technology®, Danvers, MA, USA), at 37°C for 2 h and washed five times. Lastly, immune-reactive bands were detected using an ECF Western blot system (Tanon 5200 Multi, Shanghai, China) and quantified using AlphaImager 2200 analysis software.

Data set [8] relates to S. Typhimurium. Nature of the data set: Bactericidal activity assay (colony counting). Conditions: 5000 CFU, 1 h, 37°C, n = 6.
Method: S. Typhimurium cells were cultured to mid-log phase (OD600nm = 0.7) in TSB. The cultures were centrifuged for 10 min at 1,000 × g, and the cell pellets were diluted in assay medium (10 mM phosphate, pH 7.0, with 1/100 TSB). The antimicrobial activities of PBD-2, TG serum and tissue homogenates were determined by colony counting assay. The mice serum, caecum, colon, or duodenum homogenates were heat inactivated at 56°C for 20 min to exclude the possible effect of complement in tissues. As a control, PBD-2 solution in PBS (50 μg/ml) was also heat-treated at 56°C for 20 min. Afterwards, 5000 CFUs of S. Typhimurium were mixed with 100 μl of each sample in a centrifuge tube at 37°C for 1 h. After incubation, 10 serial dilutions from 10 to 1,000-fold in TSB were conducted, and the diluted bacterial cultures were transferred onto TSA plates and incubated at 37°C for 24 h. The numbers of bacterial CFUs were recorded.
Setting [9] is: PBD-2 expressed in TG mice, oral 2.5 × 10^8 CFU S. Typhimurium, vs WT.
Setting [10] is: synthetic PBD-2 5 mg/kg orally with 2.5 × 10^8 CFU S. Typhimurium, WT mice, vs infection alone.

Molecules are shown by their SMILES. Where a SMILES comes first, the peptide text is derived from it.

Regarding `CC[C@H](C)[C@H](NC(=O)[C@@H]1CSSC[C@@H]2NC(=O)[C@@H]3CCCN3C(=O)[C@H](CO)NC(=O)[C@H](Cc3ccccc3)NC(=O)[C@H](CC(N)=O)NC(=O)[C@@H]3CSSC[C@H](NC(=O)[C@H]([C@@H](C)O)NC(=O)CNC(=O)[C@H](CCC(=O)O)NC(=O)[C@H]([C@@H](C)CC)NC(=O)[C@H](CCCNC(=N)N)NC(=O)[C@H](CC(N)=O)NC(=O)[C@H](Cc4ccccc4)NC(=O)[C@H](CC(C)C)NC(=O)[C@@H]4CCCN4C2=O)C(=O)N[C@@H](Cc2ccc(O)cc2)C(=O)N[C@@H](CO)C(=O)NCC(=O)N[C@@H](CCCCN)C(=O)N[C@@H](C)C(=O)N[C@@H](CCCCN)C(=O)N[C@@H](CSSC[C@H](NC(=O)[C@@H](NC(=O)[C@H](Cc2ccc(O)cc2)NC(=O)[C@H](Cc2c[nH]cn2)NC(=O)[C@@H](N)CC(=O)O)[C@@H](C)CC)C(=O)N[C@@H](C)C(=O)N[C@@H](CCCCN)C(=O)N[C@@H](CCCCN)C(=O)NCC(=O)NCC(=O)N[C@@H]([C@@H](C)O)C(=O)N3)C(=O)N1)C(=O)N[C@@H](CCCNC(=N)N)C(=O)O` [PBD-2, Porcine beta-defensin 2] (HELM PEPTIDE1{D.H.Y.I.C.A.K.K.G.G.T.C.N.F.S.P.C.P.L.F.N.R.I.E.G.T.C.Y.S.G.K.A.K.C.C.I.R}$PEPTIDE1,PEPTIDE1,5:R3-34:R3|PEPTIDE1,PEPTIDE1,12:R3-27:R3|PEPTIDE1,PEPTIDE1,17:R3-35:R3$$$V2.0; N-terminus and C-terminus assumed), the “bacterial load in the caecum” value in data set [1] was “smaller amount of bacterial load in the caecum compared with the WT mice (p < 0.05)”. In addition, the “LPS-induced phosphorylation of ERK” value in data set [2] was “did not affect the LPS-induced phosphorylation of ERK, p38, and JNK”. Also, in data set [3] (setting [9]), the “level of IL-1β in serum” value was “significantly lower than those of the WT mice (p < 0.05)”, the “level of IL-6 in serum” value is “significantly lower than those of the WT mice (p < 0.05)”, the “level of IL-12 in serum” value is given as “significantly lower than those of the WT mice (p < 0.05)” and the “level of TNF-α in serum” value is recorded as “significantly lower than those of the WT mice (p < 0.05)”. In data set [3] (setting [10]), the “level of IL-1β in serum” value was “significantly lower levels of proinflammatory cytokines than the mice infected with S. Typhimurium alone did (p < 0.05)”, the “level of IL-6 in serum” value is reported as “significantly lower levels of proinflammatory cytokines than the mice infected with S. Typhimurium alone did (p < 0.05)”, the “level of IL-12 in serum” value is given as “significantly lower levels of proinflammatory cytokines than the mice infected with S. Typhimurium alone did (p < 0.05)” and the “level of TNF-α in serum” value was “significantly lower levels of proinflammatory cytokines than the mice infected with S. Typhimurium alone did (p < 0.05)”. Further, the “ratio of organ weight to total body weight” value in data set [4] (heart, liver, spleen, lung, kidney, brain) was “did not significantly differ from the WT mice in terms of body weight (Figure S1B) and the ratio of organ weight to total body weight”. Also, the body weight result in data set [4] was “did not significantly differ from the WT mice in terms of body weight”. For the same compound, in data set [5], the “caecum weight ratio (organ weight/body weight), caecal enlargement” value was “the WT mice exhibited more severe splenic atrophy and caecal enlargement compared with the TG mice on day 2 post-infection (p < 0.05)”; the “spleen weight ratio (organ weight/body weight), splenic atrophy” value was “the WT mice exhibited more severe splenic atrophy and caecal enlargement compared with the TG mice on day 2 post-infection (p < 0.05)”. Moreover, in data set [6] (oral administration, pigs, ref [15]), the “growth performance, caecum microbial flora, inflammatory cytokine expression” value is “improve growth performance and caecum microbial flora and reduce the expression of inflammatory cytokines in pigs”. In data set [6] (ref [13]), the “growth and diarrhea in piglets” value is reported as “promote growth, alleviate diarrhea in piglets”. In addition, the “LPS-induced NF-κB p65 phosphorylation” value in data set [7] (LPS 1 μg/ml, PBD-2 10 μg/mL (legend: various concentrations), 6 h) is on record as “suppress the LPS-induced NF-κB p65 phosphorylation”. For the same compound, the “activation of NF-κB by PBD-2 itself” value in data set [7] (PBD-2 without LPS (Figure 5D)) is “did not activate NF-κB”. The “number of survived bacteria, caecum homogenate” value in data set [8] (heat-inactivated (56°C, 20 min) caecum homogenate of PBD-2 TG mice vs WT) was “the number of the survived bacteria in the serum and tissue homogenates of the WT mice was significantly higher than that in the serum and tissue homogenates of the TG mice (p < 0.05)”. Besides, the “number of survived bacteria, colon homogenate” value in data set [8] (heat-inactivated (56°C, 20 min) colon homogenate of PBD-2 TG mice vs WT) was “the number of the survived bacteria in the serum and tissue homogenates of the WT mice was significantly higher than that in the serum and tissue homogenates of the TG mice (p < 0.05)”. For the same compound, the “number of survived bacteria, serum” value in data set [8] (heat-inactivated (56°C, 20 min) serum of PBD-2 TG mice vs WT) is “the number of the survived bacteria in the serum and tissue homogenates of the WT mice was significantly higher than that in the serum and tissue homogenates of the TG mice (p < 0.05)”.

The values above are taken from publication PMC6657668, “Porcine Beta-Defensin 2 Provides Protection Against Bacterial Infection by a Direct Bactericidal Activity and Alleviates Inflammation via Interference With the TLR4/NF-κB Pathway” (Frontiers in Immunology, 2019).
